These results are taken from PMC6274375, “Two New Pentacyclic Triterpene Saponins from the Leaves of Akebia trifoliata” (Molecules, 2016).

Data set [1] can be described thus: MTT cytotoxicity assay, A549 cells. The data set is classed as cell-based. The settings on record: human, mean ± SD (n = 3). The protocol: (§1) Compounds 1–7 were testeded for their cytotoxity against A549 (human lung adenocarcinoma), HeLa (human cervical carcinoma) and HepG2 (human liver hepatocellular carcinoma) cell lines. The three tumor cell lines were obtained from Kunming Institute of Zoology, Chinese Academy of Sciences. The cytotoxic activity of tested chemicals were assayed according to the MTT method using 96 well plates. Briefly, the cells were cultured in RPMI-1640 medium, supplemented with 10% fetal bovine serum in a humidified atmosphere with 5% CO2 at 37 °C. 100 μL adherent cells at the density of 5 × 10^4 cell/mL was seeded into each well of 96-well cell culture plates and incubated in 5% CO2 at 37 °C for 24 h to form a monolayer on the flat bottoms. Then, the supernatant per well was removed and subsequently added with 100 μL fresh medium and 100 μL medium containing a test compound. The plate was then incubated in 5% CO2 at 37 °C. After 72 h, 20 μL of 5 mg/mL MTT in DMSO was added into each well and incubated for 4 h. The supernatant per well was carefully removed and 150 μL DMSO was added. The plate was then vortex shaken for 15 min to dissolve blue formazan crystals. The optical density (OD) of each well was measured on a Genois microplate reader (Tecan GENios, Männedorf, Switzerland) at the wavelength of 570 nm. All experiments were performed in triplicate and adriamycin was used as a positive control. In each experiment, each of the tumor cell lines was exposed to the test compound at concentrations 50, 25, 12.5, 6.25, 3.125, 1.5625 µg/mL. The inhibitory rate of cell growth was calculated according to the following formula: Inhibition rate (%) = (ODcontrol − ODtreated)/ODcontrol × 100%. IC50 values were calculated by SPSS 16.0 statistic software. The values were based on three individual experiments and expressed as means ± standard deviation (SD).
For orientation: Tetrazolium assays rely on reduction of a dye to a coloured formazan, in cell work by metabolically active cells.

The nature of data set [2]: MTT cytotoxicity assay, HeLa cells. The format is cell-based. The settings on record: human, mean ± SD (n = 3). On the procedure: as §1
A short description of data set [3]: MTT cytotoxicity assay, HepG2 cells. The data set is classed as cell-based. The settings on record: human, mean ± SD (n = 3). On the procedure:
as §1

The target of another data set is α-glucosidase. Put plainly: α-Glucosidase inhibition assay (PNPG substrate). The settings on record: pH 6.8, 37 °C, read-out: α-glucosidase inhibitory activity IC50. The format is biochemical. The protocol:
The a-glucosidase inhibitory activity of 1–7 were determined spectrophotometrically in a 96-well microtiter plate based on p-nitrophenyl-α-D-glucopyranoside (PNPG) as a substrate following the method described in literature with slight modifications. In brief, α-glucosidase (20 μL, 0.8 U/mL) and various concentrations (500, 250, 125, 62.5, 31.25, 15.625 µg/mL) of tested compounds (120 μL) in 67 mM phosphate buffer (pH 6.8) were mixed at room temperature for 10 min. Reactions were initiated by addition of 5.0 mM PNPG (20 μL). The reaction mixture was incubated for 15 min at 37 °C in a final volume of 160 μL. Then, 0.2 M Na2CO3 (80 μL) was added to the incubation solution to stop the reaction. The activities were detected in a 96-well plate, and the absorbance was determined at 405 nm (for p-nitrophenol). The negative blank was set by adding phosphate buffer instead of the sample via the same way as the test. […] The blank was set by adding phosphate buffer instead of the α-glucosidase using the same method. Inhibition rate (%) = [(ODnegative control − ODblank) − (ODtest − ODtest blank)]/(ODnegative blank − ODblank) × 100%. IC50 values of the samples were calculated using the Microsoft Office Excel soft.

The nature of data set [4]: MTT cytotoxicity, summary statements over the three cell lines. The format is cell-based, human. The settings on record: human, A549, HeLa and HepG2 cells (range over the three cell lines). The protocol: as §1
The test system of data set [5] is human tumor A549, HeLa and HepG2 cell lines. The description is as above. The settings on record: A549, HeLa and HepG2. The data set is classed as cell-based. The protocol: as §1
[6] abbreviates: range over A549, HeLa and HepG2 and over both compounds, read-out: Cytotoxicity IC50 values, range over all three cancer cell lines.
Where [7] appears, read: range over the three cell lines and over both compounds, as given in abstract, read-out: Cytotoxicity IC50 values, range over A549, HeLa and HepG2.

Molecules are shown by their SMILES. Bounds are passed on as bounds.

What is called IC50 is the midpoint of a concentration-inhibition curve. Consider `CC1(C)CC[C@]2(C(=O)O)CC[C@]3(C)C(=CCC4[C@@]5(C)C[C@@H](O)[C@H](O)[C@@](C)(C=O)C5CC[C@]43C)C2C1` (stereo partly drawn) [Compound 5, 2α,3β-dihydroxy-23-oxo-olean-12-en-28-oic acid], for which the IC50 at 72 h in data set [1] is 30.2 ± 4.55 µM; in data set [2], 22.7 ± 1.96 µM; in data set [3], 38 ± 7.57 µM; in data set [4] (setting [6]), 22.7 to 38.1 µM; in data set [4] (setting [7]), 23 to 38 µM. Moreover, the IC50 on α-glucosidase was found to be 47 µM. Besides, the “In vitro cytotoxicity, result in words” value in data set [5] is “moderate in vitro cytotoxicity”.

For `C=C1CC[C@]2(C(=O)O)CC[C@]3(C)C(=CCC4[C@@]5(C)C[C@@H](O)[C@H](O)[C@@](C)(C=O)C5CC[C@]43C)C2C1` (stereo partly drawn) [Compound 6, 2α,3β-dihydroxy-23-oxo-30-norolean-12,20 (29)-dien-28-oic acid], the 50% inhibitory concentration (IC50) at 72 h in data set [1], in data set [2] and in data set [3] was > 100 µM in each case. Besides, the IC50 on α-glucosidase was 220 µM.

Take `CC1(C)CC[C@]2(C(=O)O)CC[C@]3(C)C(=CC[C@@H]4[C@@]5(C)C[C@@H](O)[C@H](O)[C@@](C)(CO)[C@@H]5CC[C@]43C)[C@@H]2C1` [Compound 7, arjunolic acid]: the IC50 at 72 h in data set [1] was 33.6 ± 3.13 µM; in data set [2] it was 24.4 ± 1.49 µM; in data set [3], 38.1 ± 1.63 µM; in data set [4] (setting [6]), 22.7 to 38.1 µM; in data set [4] (setting [7]), 23 to 38 µM. Also, the IC50 on α-glucosidase is 40 µM. The “In vitro cytotoxicity, result in words” value in data set [5] is reported as “moderate in vitro cytotoxicity”.
